Data from paper PMC8950700 (Pharmaceuticals, 2022).

How the values were obtained:
H5N1V116A virus [1] = format: cell-based, influenza A virus
H5N1N295S virus [2] = format: cell-based, influenza A virus
H1N1 virus [3] = format: cell-based, influenza A virus; settings: 5 µM
H5N1N295S virus [4] = format: cell-based, influenza A virus; settings: read-out: IC50 (50% Inhibitory Concentration) H5N1N295S
H5N1wild virus [5] = settings: mouse, in vivo
H1N1 virus [6] = format: cell-based
[7] = test system: A/chicken/Egypt/B13825A/2017 (H5N1wild); experiment: microbe, parasite or virus in culture; format: cell-based; settings: read-out: IC50 (50% Inhibitory Concentration) H5N1wild
H1N1 virus [8] = settings: mouse, in vivo
in vitro = settings: dog
H5N1V116A virus [9] = format: cell-based, influenza A virus; remark: listed apart in the source
H5N1N295S virus [10] = format: cell-based, influenza A virus; remark: listed apart in the source
H5N1V116A virus [11] = format: cell-based, influenza A virus; settings: read-out: IC50 (50% Inhibitory Concentration) H5N1V116A
H5N1wild virus [12] = experiment: microbe, parasite or virus in culture; format: cell-based
[13] = test system: A/California/04/2009 (H1N1); experiment: microbe, parasite or virus in culture; format: cell-based; settings: read-out: IC50 (50% Inhibitory Concentration) H1N1
H5N1wild virus [14] = format: cell-based

CC(=O)N[C@H]1[C@H]([C@H](O)[C@H](O)CO)OC(C(=O)O)=C[C@@H]1N=C(N)N [zanamivir, reference compound]
inhibition in the viral HA titer, H5N1V116A (H5N1V116A virus [1]): not more than 80%
inhibition in the viral HA titer, H5N1N295S (H5N1N295S virus [2]): not more than 25%
viral inhibition in the count of plaques, H1N1 (H1N1 virus [3]): 96.5%
IC50 (H5N1N295S virus [4]): 15 µM
viral titer in lung tissue (TCID50), H5N1wild (H5N1wild virus [5]): reduced the titration
inhibition in the viral HA titer, H1N1 (H1N1 virus [6]): not more than 80%
IC50 [7]: 10.4 µM
mortality after infection with H1N1 (H1N1 virus [8]): 40%
viral titer in lung tissue (TCID50), H1N1 (H1N1 virus [8]): reduced the titration
virus shedding in the nasal wash (EID50), H1N1 (H1N1 virus [8]): significantly reduced the viral titer
CC50 at 72 h (in vitro): 589 µM
viral inhibition in the count of plaques, H5N1V116A (H5N1V116A virus [9]): 60%
viral inhibition in the count of plaques, H5N1N295S (H5N1N295S virus [10]): 31%
IC50 (H5N1V116A virus [11]): 127 µM
viral inhibition in the count of plaques, H5N1wild (H5N1wild virus [12]): 69.2%
IC50 [13]: 1.65 µM
inhibition in the viral HA titer, H5N1wild (H5N1wild virus [14]): not more than 25%
